Data reported in patent publication US11464749B2, “Bismuth-thiol compositions and methods of use” (Microbion Corporation, priority 2018, dated 2022).
Marks after values point to notes of the source that are not given here.

Key:
Assay in all cases: Broth microdilution antifungal susceptibility (Example 13)
Type in all cases: cell-based
[1] = test system: Candida auris
[2] = test system: Candida glabrata
[3] = test system: A. flavus; conditions: for MIC0: comparators, read time not given
[4] = test system: Candida krusei
[5] = test system: A. fumigatus; conditions: for MIC0: comparators, read time not given
[6] = test system: Candida albicans
[7] = test system: A. terreus; conditions: A. terreus MMX 8229
[8] = test system: A. niger; conditions: A. niger ATCC 29508
[9] = isolate MMX 9863 (FLU-R, VORI-R)
[10] = isolate MMX 9864 (FLU-R, VORI-R)
[11] = isolate MMX 9865 (FLU-R, VORI-R)
[12] = isolate MMX 9866 (FLU-R, VORI-R)
[13] = isolate MMX 9867 (FLU-R, VORI-R)
[14] = isolate MMX 9868 (FLU-R, VORI-R)
[15] = isolate MMX 9869 (FLU-R, VORI-R)
[16] = isolate MMX 9870 (FLU-R, VORI-R)
[17] = isolate ATCC 90030 (Susceptible)
[18] = isolate ATCC MYA-2950 (Susceptible)
[19] = isolate MMX 7103 (CASP-R, MICA-R)
[20] = isolate MMX 7285 (CASP-R, MICA-R)
[21] = isolate MMX 7307 (CASP-R, MICA-R, FLU-R)
[22] = isolate ATCC 14243 (Susceptible)
[23] = isolate ATCC 96685 (Susceptible)
[24] = isolate MMX 9878 (MICA-I, VORI-I)
[25] = isolate ATCC 90028 (Susceptible), 24 hr
[26] = isolate ATCC 204276 (MICA-R), 24 hr
[27] = isolate ATCC MYA-2732 (FLU-R, VORI-I), 24 hr
[28] = isolate MMX 7053 (Susceptible), 24 hr
[29] = isolate MMX 7067 (FLU-R, VORI-R), 24 hr
[30] = isolate MMX 7403 (Susceptible), 24 hr
[31] = isolate MMX 7424 (CASP-R, MICA-R), 24 hr
[32] = isolate MMX 7430 (Susceptible), 24 hr
[33] = isolate MMX 7437 (FLU-I), 24 hr
[34] = 48 hr only, insufficient growth for 24 hr read
[35] = comparators, read time not given

CC[C@H](C)C[C@H](C)CCCCCCCCC(=O)N[C@H]1C[C@@H](O)[C@@H](NCCN)NC(=O)[C@@H]2[C@@H](O)CCN2C(=O)[C@H]([C@H](O)CCN)NC(=O)[C@H]([C@H](O)[C@@H](O)c2ccc(O)cc2)NC(=O)[C@@H]2C[C@@H](O)CN2C(=O)[C@H]([C@@H](C)O)NC1=O [CASP]
MIC2 (50% inhibition) ([1]; isolate MMX 9862 (Susceptible)): 0.12 µg/mL | MIC2 (50% inhibition) [1, 9]: 0.12^b μg/mL | MIC2 (50% inhibition) [1, 10]: 0.25^b μg/mL | MIC2 (50% inhibition) [1, 11]: 0.25^b μg/mL | MIC2 (50% inhibition) [1, 12]: 0.12^b μg/mL | MIC2 (50% inhibition) [1, 13]: 0.12 µg/mL | MIC2 (50% inhibition) [1, 14]: 0.25 µg/mL | MIC2 (50% inhibition) [1, 15]: 0.25 µg/mL | MIC2 (50% inhibition) [1, 16]: 0.25 µg/mL | MIC2 (50% inhibition) ([1]; isolate MMX 9871 (Susceptible)): 0.25^b μg/mL | MIC2 (50% inhibition) [2, 17]: 0.12 µg/mL | MIC2 (50% inhibition) [2, 18]: 0.12 µg/mL | MIC2 (50% inhibition) ([2]; isolate MMX 7087 (Susceptible)): 0.12 µg/mL | MIC2 (50% inhibition) ([2]; isolate MMX 7093 (FLU-R)): 0.12 µg/mL | MIC2 (50% inhibition) ([2]; isolate MMX 7101 (FLU-R)): 0.12 µg/mL | MIC2 (50% inhibition) [2, 19]: >8 µg/mL | MIC2 (50% inhibition) ([2]; isolate MMX 7111 (Susceptible)): 0.12 µg/mL | MIC2 (50% inhibition) [2, 20]: 0.5 µg/mL | MIC2 (50% inhibition) [2, 21]: >8 µg/mL | MIC2 (50% inhibition) ([2]; isolate MMX 7549 (Susceptible)): 0.06 µg/mL | MEC (minimum effective concentration) ([3]; A. flavus ATCC 22546): 0.06 µg/mL | MEC (minimum effective concentration) ([3]; A. flavus ATCC 204304): 0.06 µg/mL | MEC (minimum effective concentration) ([3]; A. flavus MMX 7935): 0.03 µg/mL | MIC2 (50% inhibition) ([4]; isolate ATCC 6258 (MICA-I)): 0.25 µg/mL | MIC2 (50% inhibition) [4, 22]: 0.012 µg/mL | MIC2 (50% inhibition) [4, 23]: 0.12 µg/mL | MIC2 (50% inhibition) ([4]; isolate MMX 7125 (Susceptible)): 0.25 µg/mL | MIC2 (50% inhibition) ([4]; isolate MMX 7128 (Susceptible)): 0.25 µg/mL | MIC2 (50% inhibition) ([4]; isolate MMX 7141 (Susceptible)): 0.25 µg/mL | MIC2 (50% inhibition) ([4]; isolate MMX 7153 (MICA-R)): 0.25 µg/mL | MIC2 (50% inhibition) ([4]; isolate MMX 7155 (Susceptible)): 0.25 µg/mL | MIC2 (50% inhibition) ([4]; isolate MMX 7563 (Susceptible)): 0.12 µg/mL | MIC2 (50% inhibition) [4, 24]: 0.25 µg/mL | MEC (minimum effective concentration) ([5]; A. fumigatus ATCC 204305): 0.25 µg/mL | MEC (minimum effective concentration) ([5]; A. fumigatus ATCC MYA-3626): 0.06 µg/mL | MEC (minimum effective concentration) ([5]; A. fumigatus MMX 5934): 0.12 µg/mL | MEC (minimum effective concentration) ([5]; A. fumigatus MMX 5938, 48 hr only, insufficient growth for 24 hr read): 0.12^b μg/mL | MEC (minimum effective concentration) ([5]; A. fumigatus MMX 5939): 0.12 µg/mL | MIC2 (50% inhibition) [6, 25]: 0.06 µg/mL | MIC2 (50% inhibition) [6, 26]: 0.25 µg/mL | MIC2 (50% inhibition) [6, 27]: 0.06 µg/mL | MIC2 (50% inhibition) [6, 28]: 0.06 µg/mL | MIC2 (50% inhibition) [6, 29]: 0.06 µg/mL | MIC2 (50% inhibition) [6, 30]: 0.06 µg/mL | MIC2 (50% inhibition) [6, 31]: 8 µg/mL | MIC2 (50% inhibition) [6, 32]: 0.06 µg/mL | MIC2 (50% inhibition) [6, 33]: 0.06 µg/mL | MIC2 (50% inhibition) ([6]; isolate MMX 7445 (FLU-R, VORI-R), result after 48 hr incubation (insufficient growth at 24 hr)): 0.06^a μg/mL | MEC (minimum effective concentration) [7, 34]: 0.12^b μg/mL | MEC (minimum effective concentration) [8, 34]: 0.06^b μg/mL

C[C@@H]1[C@H](O)[C@@H](C)/C=C/C=C/C=C/C=C/C=C/C=C/C=C/[C@H](O[C@@H]2O[C@H](C)[C@@H](O)[C@H](N)[C@@H]2O)C[C@@H]2O[C@](O)(C[C@@H](O)C[C@@H](O)[C@H](O)CC[C@@H](O)C[C@@H](O)CC(=O)O[C@H]1C)C[C@H](O)[C@H]2C(=O)O [AMP B]
MIC0 (complete inhibition) ([1]; isolate MMX 9862 (Susceptible)): 0.25 µg/mL | MIC0 (complete inhibition) [1, 9]: 0.12 µg/mL | MIC0 (complete inhibition) [1, 10]: 0.25 µg/mL | MIC0 (complete inhibition) [1, 11]: 0.25 µg/mL | MIC0 (complete inhibition) [1, 12]: 0.5 µg/mL | MIC0 (complete inhibition) [1, 13]: 0.5 µg/mL | MIC0 (complete inhibition) [1, 14]: 0.25 µg/mL | MIC0 (complete inhibition) [1, 15]: 1 µg/mL | MIC0 (complete inhibition) [1, 16]: 1 µg/mL | MIC0 (complete inhibition) ([1]; isolate MMX 9871 (Susceptible)): 1 µg/mL | MIC0 (complete inhibition) [2, 17]: 0.25 µg/mL | MIC0 (complete inhibition) [2, 18]: 0.12 µg/mL | MIC0 (complete inhibition) ([2]; isolate MMX 7087 (Susceptible)): 0.12 µg/mL | MIC0 (complete inhibition) ([2]; isolate MMX 7093 (FLU-R)): 0.25 µg/mL | MIC0 (complete inhibition) ([2]; isolate MMX 7101 (FLU-R)): 0.25 µg/mL | MIC0 (complete inhibition) [2, 19]: 0.25 µg/mL | MIC0 (complete inhibition) ([2]; isolate MMX 7111 (Susceptible)): 0.25 µg/mL | MIC0 (complete inhibition) [2, 20]: 0.25 µg/mL | MIC0 (complete inhibition) [2, 21]: 0.25 µg/mL | MIC0 (complete inhibition) ([2]; isolate MMX 7549 (Susceptible)): 0.25 µg/mL | MIC0 ([3]; A. flavus ATCC 22546): 1 µg/mL | MIC0 ([3]; A. flavus ATCC 204304): 1 µg/mL | MIC0 ([3]; A. flavus MMX 7935): 1 µg/mL | MIC0 (complete inhibition) ([4]; isolate ATCC 6258 (MICA-I)): 0.5 µg/mL | MIC0 (complete inhibition) [4, 22]: 0.25 µg/mL | MIC0 (complete inhibition) [4, 23]: 0.5 µg/mL | MIC0 (complete inhibition) ([4]; isolate MMX 7125 (Susceptible)): 0.5 µg/mL | MIC0 (complete inhibition) ([4]; isolate MMX 7128 (Susceptible)): 0.5 µg/mL | MIC0 (complete inhibition) ([4]; isolate MMX 7141 (Susceptible)): 0.25 µg/mL | MIC0 (complete inhibition) ([4]; isolate MMX 7153 (MICA-R)): 0.5 µg/mL | MIC0 (complete inhibition) ([4]; isolate MMX 7155 (Susceptible)): 0.25 µg/mL | MIC0 (complete inhibition) ([4]; isolate MMX 7563 (Susceptible)): 0.5 µg/mL | MIC0 (complete inhibition) [4, 24]: 0.5 µg/mL | MIC0 ([5]; A. fumigatus ATCC 204305): 1 µg/mL | MIC0 ([5]; A. fumigatus ATCC MYA-3626): 1 µg/mL | MIC0 ([5]; A. fumigatus MMX 5934): 1 µg/mL | MIC0 ([5]; A. fumigatus MMX 5938): 1 µg/mL | MIC0 ([5]; A. fumigatus MMX 5939): 1 µg/mL | MIC0 (complete inhibition) [6, 25]: 0.25 µg/mL | MIC0 (complete inhibition) [6, 26]: 0.25 µg/mL | MIC0 (complete inhibition) [6, 27]: 0.25 µg/mL | MIC0 (complete inhibition) [6, 28]: 0.12 µg/mL | MIC0 (complete inhibition) [6, 29]: 0.25 µg/mL | MIC0 (complete inhibition) [6, 30]: 0.25 µg/mL | MIC0 (complete inhibition) [6, 31]: 0.25 µg/mL | MIC0 (complete inhibition) [6, 32]: 0.25 µg/mL | MIC0 (complete inhibition) [6, 33]: 0.25 µg/mL | MIC0 (complete inhibition) ([6]; isolate MMX 7445 (FLU-R, VORI-R), 24 hr): 0.12 µg/mL | MIC0 [7, 35]: 0.25 µg/mL | MIC0 [8, 35]: 0.25 µg/mL
